This test concerns BDF1 mice, colon carcinoma 38 sc, T/C %. Briefly: NCI In Vivo Anticancer Drug Screen. Data for tumor model Colon Carcinoma 38 (subcutaneous) in B6D2F1 (BDF1) mice. Conditions: endpoint: median tumor weight (est.), higher = larger tumour. The method, then: The antitumor activity of compounds was measured in mice bearing transplantable tumors. Survival or tumor size were measured and the results are expressed as the measurement made in the treated group (T) divided by the measurement made in the vehicle treated control group (C). The tumor model used in this assay is Colon Carcinoma 38 (subcutaneous) in B6D2F1 (BDF1) mice

Where [1] appears, read: dose: 400.0 mg/kg/injection, schedule: Q07DX002 (ip), vehicle: Klucel (hydroxypropylcellulose) (HPC).
Setting [2] is: dose: 25.0 mg/kg/injection, schedule: Q07DX002 (ip), vehicle: saline with Tween-80.
Where [3] appears, read: dose: 50.0 mg/kg/injection, schedule: Q07DX002 (ip), vehicle: saline with Tween-80.

Values joined by “and” are separate entries in the source; they are usually repeats but may differ in a detail not shown here. Identical values can stand only once. Records with an inconclusive call do not appear. Where a SMILES comes first, the peptide text is derived from it. Bridges are numbered along the chain shown (N, C = ends). Roman numbers before positions name the chains, in order. [ ]: non-standard residue; d: D form. The star is where a group is joined. Quinoxaline2carbonyl = O=C(c1cnc2ccccc2n1)*; Trt = c1ccc(C(c2ccccc2)(c2ccccc2)*)cc1; NMeV = CN[CH](C(=O)O)C(C)C; NMeC = CN[CH](CS)C(=O)O; Cbz = O=C(OCc1ccccc1)*

Consider `COC(=O)C(CSC(c1ccccc1)(c1ccccc1)c1ccccc1)NC(=O)C(CC(N)=O)NC(=O)OCc1ccccc1` (stereo not drawn) (Cbz-Asn-Cys(Trt)-OMe; configuration not given here), for which the T/C reads like this: (dose: 25.0 mg/kg/injection, schedule: Q07DX002 (ip), vehicle: distilled water + Tween-80) 95 % of control; (dose: 50.0 mg/kg/injection, schedule: Q07DX002 (ip), vehicle: distilled water + Tween-80) 60 % of control; (dose: 100.0 mg/kg/injection, schedule: Q07DX002 (ip), vehicle: distilled water + Tween-80) 95 % of control; (dose: 200.0 mg/kg/injection, schedule: Q07DX002 (ip), vehicle: distilled water + Tween-80) 84 % of control and 88 % of control; (dose: 400.0 mg/kg/injection, schedule: Q07DX002 (ip), vehicle: distilled water + Tween-80) 77 % of control; (dose: 800.0 mg/kg/injection, schedule: Q07DX002 (ip), vehicle: distilled water + Tween-80) 56 % of control.

On to `Nc1nc2n[nH]nc2c(=O)[nH]1`, for which the T/C (dose: 50.0 mg/kg/injection, schedule: Q07DX002 (ip), vehicle: suspension in saline) was 64 % of control; the T/C (dose: 100.0 mg/kg/injection, schedule: Q07DX002 (ip), vehicle: suspension in saline) is 80 % of control; the T/C (dose: 200.0 mg/kg/injection, schedule: Q07DX002 (ip), vehicle: suspension in saline) is 57 % of control; the T/C (dose: 400.0 mg/kg/injection, schedule: Q07DX002 (ip), vehicle: suspension in saline) was 51 % of control.

In the case of `O=c1n[n+]([O-])ccn1C1OC(CO)C(O)C1O` (stereo not drawn), the T/C runs as follows: (dose: 100.0 mg/kg/injection, schedule: Q07DX002 (ip), vehicle: saline) 160 % of control; (dose: 200.0 mg/kg/injection, schedule: Q07DX002 (ip), vehicle: saline) 117 % of control; (dose: 600.0 mg/kg/injection, schedule: Q07DX002 (ip), vehicle: saline) 73 % of control.

For the compound `O=CC(NC(=O)N(CCCl)N=O)C(O)C(O)C(O)CO` (stereo not drawn), the T/C is, setting by setting: (dose: 0.47 mg/kg/injection, schedule: Q07DX003 (ip), vehicle: saline) 102 % of control; (dose: 0.94 mg/kg/injection, schedule: Q07DX003 (ip), vehicle: saline) 98 % of control; (dose: 1.5 mg/kg/injection, schedule: Q07DX002 (ip), vehicle: saline) 105 % of control; (dose: 3.75 mg/kg/injection, schedule: Q07DX003 (ip), vehicle: saline) 68 % of control; (dose: 4.0 mg/kg/injection, schedule: Q07DX002 (ip), vehicle: saline) 92 % of control; (dose: 6.0 mg/kg/injection, schedule: Q07DX003 (ip), vehicle: saline) 68 % of control. The T/C reads like this: (dose: 7.5 mg/kg/injection, schedule: Q07DX003 (ip), vehicle: saline) 68 % of control; (dose: 8.0 mg/kg/injection, schedule: Q07DX002 (ip), vehicle: saline) 57 % of control; (dose: 12.0 mg/kg/injection, schedule: Q07DX003 (ip), vehicle: saline) 82 % of control; (dose: 15.0 mg/kg/injection, schedule: Q07DX003 (ip), vehicle: saline) 43 % of control; (dose: 16.0 mg/kg/injection, schedule: Q07DX002 (ip), vehicle: saline) 43 % of control; (dose: 24.0 mg/kg/injection, schedule: Q07DX003 (ip), vehicle: saline) 57 % of control.

As to `S=C(Nc1ccc(Cl)c(Cl)c1)N1c2ccccc2-n2cccc2C1c1cccnc1` (stereo not drawn), the T/C was 83 % of control (dose: 50.0 mg/kg/injection, schedule: Q07DX002 (ip), vehicle: Klucel (hydroxypropylcellulose) (HPC)); 113 % of control and 95 % of control (dose: 200.0 mg/kg/injection, schedule: Q07DX002 (ip), vehicle: Klucel (hydroxypropylcellulose) (HPC)); 101 % of control under setting [1].

For the compound `CSc1nc(=O)[nH]nc1SCc1ccccc1`, the T/C was 151 % of control and 169 % of control (dose: 25.0 mg/kg/injection, schedule: Q07DX002 (ip), vehicle: Klucel (hydroxypropylcellulose) (HPC)); 65 % of control under setting [1].

As for `CCCCNc1ccc2nnc(C)n2n1`, the T/C was 102 % of control (dose: 25.0 mg/kg/injection, schedule: Q07DX002 (ip), vehicle: other); 98 % of control and 108 % of control (dose: 200.0 mg/kg/injection, schedule: Q07DX002 (ip), vehicle: other).

As for `CC(=O)CC(c1ccccc1)c1c(O)c2ccccc2oc1=O` (stereo not drawn), the T/C is 96 % of control (dose: 0.01 mg/kg/injection, schedule: Q07DX002 (ip), vehicle: Klucel (hydroxypropylcellulose) (HPC)); 119 % of control (dose: 0.02 mg/kg/injection, schedule: Q07DX002 (ip), vehicle: Klucel (hydroxypropylcellulose) (HPC)); 100 % of control (dose: 0.05 mg/kg/injection, schedule: Q07DX002 (ip), vehicle: Klucel (hydroxypropylcellulose) (HPC)); 95 % of control (dose: 0.1 mg/kg/injection, schedule: Q07DX002 (ip), vehicle: Klucel (hydroxypropylcellulose) (HPC)); 86 % of control (dose: 0.2 mg/kg/injection, schedule: Q07DX002 (ip), vehicle: Klucel (hydroxypropylcellulose) (HPC)); 115 % of control (dose: 0.22 mg/kg/injection, schedule: Q07DX002 (ip), vehicle: saline). The T/C (dose: 0.45 mg/kg/injection, schedule: Q07DX002 (ip), vehicle: saline with Tween-80) was 91 % of control; the T/C (dose: 0.45 mg/kg/injection, schedule: Q07DX002 (ip), vehicle: saline) was 96 % of control; the T/C (dose: 0.9 mg/kg/injection, schedule: Q07DX002 (ip), vehicle: saline with Tween-80) was 110 % of control; the T/C (dose: 0.9 mg/kg/injection, schedule: Q07DX002 (ip), vehicle: saline) was 88 % of control; the T/C (dose: 1.8 mg/kg/injection, schedule: Q07DX002 (ip), vehicle: saline) is 72 % of control; the T/C (dose: 3.6 mg/kg/injection, schedule: Q07DX002 (ip), vehicle: saline) was 67 % of control.

On to `Nc1ccc(C(OC(=O)c2cc3ccccc3c(Cc3c(O)c(C(=O)OC(c4ccc(N)cc4)(c4ccc(N)cc4)c4ccc(N)cc4)cc4ccccc34)c2O)(c2ccc(N)cc2)c2ccc(N)cc2)cc1`, for which the T/C by setting is: (dose: 1.56 mg/kg/injection, schedule: Q07DX002 (ip), vehicle: saline with Tween-80) 100 % of control; (dose: 3.12 mg/kg/injection, schedule: Q07DX002 (ip), vehicle: saline with Tween-80) 70 % of control; (dose: 6.25 mg/kg/injection, schedule: Q07DX002 (ip), vehicle: saline with Tween-80) 92 % of control; under setting [2], 84 % of control and 93 % of control; under setting [3], 114 % of control.

As for `CC1NC(=O)C(NC(=O)c2cnc3ccccc3n2)COC(=O)C(C(C)C)N(C)C(=O)C2CSSCC(C(=O)N(C)C(C(C)C)C(=O)OCC(NC(=O)c3cnc4ccccc4n3)C(=O)NC(C)C(=O)N2C)N(C)C1=O` (stereo not drawn) (I: Quinoxaline2carbonyl-SA[NMeC][NMeV] / II: Quinoxaline2carbonyl-SA[NMeC][NMeV]; ester I:1-II:C, I:C-II:1; disulfide I:3-II:3; configuration not given here), the T/C is 102 % of control (dose: 25.0 micrograms/kg/injection, schedule: Q07DX002 (ip), vehicle: Klucel (hydroxypropylcellulose) (HPC)); 74 % of control (dose: 50.0 micrograms/kg/injection, schedule: Q07DX002 (ip), vehicle: Klucel (hydroxypropylcellulose) (HPC)); 84 % of control (dose: 100.0 micrograms/kg/injection, schedule: Q07DX002 (ip), vehicle: Klucel (hydroxypropylcellulose) (HPC)); 95 % of control (dose: 200.0 micrograms/kg/injection, schedule: Q07DX002 (ip), vehicle: Klucel (hydroxypropylcellulose) (HPC)).

On to `O=CCC(O)C(O)C(O)CO` (stereo not drawn), for which the T/C (dose: 600.0 mg/kg/injection, schedule: Q07DX002 (ip), vehicle: suspension in saline) is 108 % of control; the T/C (dose: 1800.0 mg/kg/injection, schedule: Q07DX002 (ip), vehicle: suspension in saline) is 96 % of control; the T/C (dose: 2400.0 mg/kg/injection, schedule: Q07DX002 (ip), vehicle: suspension in saline) was 102 % of control; the T/C (dose: 3600.0 mg/kg/injection, schedule: Q07DX002 (ip), vehicle: suspension in saline) is 74 % of control.

On to `CN1C(=O)C(=Cc2ccc(O)cc2)C(=O)N(C)C1=O`, for which the T/C (dose: 12.5 mg/kg/injection, schedule: Q07DX002 (ip), vehicle: saline with Tween-80) is 105 % of control and the T/C under setting [2] was 53 % of control.

On to `CCC(=O)Sc1ccccc1C(=O)Nc1ccc(Cl)cc1`, for which the T/C by setting is: under setting [3], 120 % of control; (dose: 100.0 mg/kg/injection, schedule: Q07DX002 (ip), vehicle: saline with Tween-80) 104 % of control; (dose: 200.0 mg/kg/injection, schedule: Q07DX002 (ip), vehicle: saline with Tween-80) 114 % of control; (dose: 400.0 mg/kg/injection, schedule: Q07DX002 (ip), vehicle: saline with Tween-80) 59 % of control.

The values above are taken from PubChem BioAssay AID212 (DTP/NCI, 2004).
